{"source": "patent US20190022152A1", "about": "“MICROBIOME RESPONSE TO AGENTS” (Yeda Research and Development Co., Ltd., priority 2014, published 2019)", "tested_on": "fecal microbiota", "settings": "fecal samples, 11 weeks consumption", "experimental": "Illumina sequence reads were mapped to the human microbiome reference genome database of the Human Microbiome Project [www(dot)hmpdacc(dot)org/HMREFG/^32], and to a gut microbial gene catalogue^33 using GEM mapper^58 with the following parameters: • -m 3 -s 0 -q offset-33 -gem-quality-threshold 26\nMicrobial species abundance was measured as the fraction of reads that mapped to a single species in the database. An EM algorithm adapted from Pathoscope^59 was employed to determine the correct assignment of reads that mapped to more than one species. We considered only species for which at least 10% of the genome was covered (each coverage bin was 10,000-bp long) in at least one of the growth conditions (saccharin, water, or glucose). Reads mapped to the gut microbial gene catalogue were assigned a KEGG^34,35 ID according to the mapping available with the catalogue. Genes were subsequently mapped to KEGG pathways, and only pathways whose gene coverage was above 0.2 were included.", "note": "Read-outs that look alike come from different tables or passages of the source."}
{"molecule": "OC[C@H]1OC(O)[C@H](O)[C@@H](O)[C@@H]1O", "note": "(stereo partly drawn) [Glucose]", "values": [{"measurement": "Fold change (week 11/week 0) in relative species abundance", "setting": "Symbol BACT_9, Number 996", "value": 1.24}, {"measurement": "Fold change (week 11/week 0) in relative species abundance", "setting": "Symbol BACT_49, Number 420", "value": 0.15}, {"measurement": "Fold change (week 11/week 0) in relative species abundance", "setting": "Symbol BACT_60, Number 752", "value": 0.88}, {"measurement": "Fold change (week 11/week 0) in relative species abundance", "setting": "Symbol BACT_65, Number 918", "value": 1.20}, {"measurement": "Fold change (week 11/week 0) in relative species abundance", "setting": "Symbol BACT_70, Number 863", "value": 1.58}, {"measurement": "Fold change (week 11/week 0) in relative species abundance", "setting": "Symbol BACT_85, Number 934", "value": 0.91}, {"measurement": "Fold change (week 11/week 0) in relative species abundance", "setting": "Symbol BACT_170, Number 883", "value": 0.93}, {"measurement": "Fold change (week 11/week 0) in relative species abundance", "setting": "Symbol BACT_171, Number 748", "value": 1.24}, {"measurement": "Fold change (week 11/week 0) in relative species abundance", "setting": "Symbol BACT_178, Number 921", "value": 1.53}, {"measurement": "Fold change (week 11/week 0) in relative species abundance", "setting": "Symbol BACT_181, Number 767", "value": 1.14}, {"measurement": "Fold change (week 11/week 0) in relative species abundance", "setting": "Symbol BACT_185, Number 633", "value": 5.63}, {"measurement": "Fold change (week 11/week 0) in relative species abundance", "setting": "Symbol BACT_189, Number 636", "value": 1.66}, {"measurement": "Fold change (week 11/week 0) in relative species abundance", "setting": "Symbol BACT_192, Number 995", "value": 0.86}, {"measurement": "Fold change (week 11/week 0) in relative species abundance", "setting": "Symbol BACT_195, Number 523", "value": 1.15}, {"measurement": "Fold change (week 11/week 0) in relative species abundance", "setting": "Symbol BACT_225, Number 953", "value": 1.18}, {"measurement": "Fold change (week 11/week 0) in relative species abundance", "setting": "Symbol BACT_258, Number 620", "value": 1.13}, {"measurement": "Fold change (week 11/week 0) in relative species abundance", "setting": "Symbol BACT_260, Number 1443", "value": 0.94}, {"measurement": "Fold change (week 11/week 0) in relative species abundance", "setting": "Symbol BACT_300, Number 769", "value": 1.16}, {"measurement": "Fold change (week 11/week 0) in relative species abundance", "setting": "Symbol BACT_413, Number 847", "value": 1.17}, {"measurement": "Fold change (week 11/week 0) in relative species abundance", "setting": "Symbol BACT_419, Number 920", "value": 0.67}, {"measurement": "Fold change (week 11/week 0) in relative species abundance", "setting": "Symbol BACT_420, Number 922", "value": 0.87}, {"measurement": "Fold change (week 11/week 0) in relative species abundance", "setting": "Symbol BACT_424, Number 906", "value": 1.13}, {"measurement": "Fold change (week 11/week 0) in relative species abundance", "setting": "Symbol BACT_449, Number 772", "value": 1.13}, {"measurement": "Fold change (week 11/week 0) in relative species abundance", "setting": "Symbol BACT_463, Number 719", "value": 1.55}, {"measurement": "Fold change (week 11/week 0) in relative species abundance", "setting": "Symbol BACT_496, Number 765", "value": 0.62}, {"measurement": "Fold change (week 11/week 0) in relative species abundance", "setting": "Symbol BACT_499, Number 35", "value": 0.73}, {"measurement": "Fold change (week 11/week 0) in relative species abundance", "setting": "Symbol BACT_511, Number 591", "value": 1.55}, {"measurement": "Fold change (week 11/week 0) in relative species abundance", "setting": "Symbol BACT_535, Number 940", "value": 0.66}, {"measurement": "Fold change (week 11/week 0) in relative species abundance", "setting": "Symbol BACT_539, Number 117", "value": 0.75}, {"measurement": "Fold change (week 11/week 0) in relative species abundance", "setting": "Symbol BACT_551, Number 907", "value": 0.73}, {"measurement": "Fold change (week 11/week 0) in relative species abundance", "setting": "Symbol BACT_572, Number 963", "value": 0.92}, {"measurement": "Fold change (week 11/week 0) in relative species abundance", "setting": "Symbol BACT_627, Number 886", "value": 0.66}, {"measurement": "Fold change (week 11/week 0) in relative species abundance", "setting": "Symbol BACT_681, Number 125", "value": 1.55}, {"measurement": "Fold change (week 11/week 0) in relative species abundance", "setting": "Symbol BACT_722, Number 377", "value": 1.47}, {"measurement": "Fold change (week 11/week 0) in relative species abundance", "setting": "Symbol BACT_843, Number 1318", "value": 0.69}, {"measurement": "Fold change (week 11/week 0) in relative species abundance", "setting": "Symbol BACT_850, Number 394", "value": 1.86}, {"measurement": "Fold change (week 11/week 0) in relative species abundance", "setting": "Symbol BACT_852, Number 766", "value": 0.88}, {"measurement": "Fold change (week 11/week 0) in relative species abundance", "setting": "Symbol BACT_855, Number 835", "value": 1.23}, {"measurement": "Fold change (week 11/week 0) in relative species abundance", "setting": "Symbol BACT_890, Number 163", "value": 0.74}, {"measurement": "Fold change (week 11/week 0) in relative species abundance", "setting": "Symbol BACT_913, Number 904", "value": 1.17}, {"measurement": "Fold change (week 11/week 0) in relative species abundance", "setting": "Symbol BACT_915, Number 1315", "value": 1.23}, {"measurement": "Fold change (week 11/week 0) in relative species abundance", "setting": "Symbol BACT_1001, Number 933", "value": 0.79}, {"measurement": "Fold change (week 11/week 0) in relative species abundance", "setting": "Symbol BACT_1083, Number 1008", "value": 2.25}, {"measurement": "Fold change (week 11/week 0) in relative species abundance", "setting": "Symbol BACT_1131, Number 942", "value": 0.79}, {"measurement": "Fold change (week 11/week 0) in relative species abundance", "setting": "Symbol BACT_1311, Number 1259", "value": 1.16}, {"measurement": "Fold change (week 11/week 0) in relative species abundance", "setting": "Symbol BACT_1321, Number 1255", "value": 1.16}, {"measurement": "Fold change (week 11/week 0) in relative species abundance", "setting": "Symbol BACT_1322, Number 1396", "value": 1.50}, {"measurement": "Fold change (week 11/week 0) in relative species abundance", "setting": "Symbol BACT_1324, Number 1264", "value": 2.61}, {"measurement": "Fold change (week 11/week 0) in relative species abundance", "setting": "Symbol BACT_1348, Number 1311", "value": 1.15}, {"measurement": "Fold change (week 11/week 0) in relative species abundance", "setting": "Symbol BACT_1378, Number 1375", "value": 2.83}, {"measurement": "Fold change (week 11/week 0) in relative species abundance", "setting": "Symbol BACT_1427, Number 1266", "value": 1.13}, {"measurement": "Fold change (week 11/week 0) in relative species abundance", "setting": "Symbol BACT_1442, Number 1400", "value": 1.75}, {"measurement": "Fold change (week 11/week 0) in relative species abundance", "setting": "Symbol BACT_1457, Number 1337", "value": 0.82}, {"measurement": "Fold change (week 11/week 0) in relative species abundance", "setting": "Symbol BACT_1501, Number 1331", "value": 0.79}, {"measurement": "Fold change (week 11/week 0) in relative species abundance", "setting": "Symbol BACT_1526, Number 1227", "value": 1.58}, {"measurement": "Fold change (week 11/week 0) in relative species abundance", "setting": "Symbol BACT_1555, Number 1469", "value": 0.62}, {"measurement": "Fold change (week 11/week 0) in relative species abundance", "setting": "Symbol BACT_1569, Number 1462", "value": 0.78}, {"measurement": "Fold change (week 11/week 0) in relative species abundance", "setting": "Symbol BACT_1595, Number 1533", "value": 1.13}, {"measurement": "Fold change (week 11/week 0) in relative species abundance", "setting": "Symbol BACT_1656, Number 1503", "value": 1.55}, {"measurement": "Fold change (week 11/week 0) in relative species abundance", "setting": "Symbol BACT_3004, Number 5797", "value": 1.54}, {"measurement": "Fold change (week 11/week 0) in relative species abundance", "setting": "Symbol BACT_3005, Number 5799", "value": 1.56}, {"measurement": "Fold change (week 11/week 0) in relative species abundance", "setting": "Symbol BACT_3007, Number 5798", "value": 0.94}, {"measurement": "Fold change (week 11/week 0) in relative species abundance", "setting": "Symbol BACT_3024, Number 5841", "value": 0.72}, {"measurement": "Fold change (week 11/week 0) in relative species abundance", "setting": "Symbol BACT_3045, Number 5818", "value": 1.19}, {"measurement": "Fold change (week 11/week 0) in relative species abundance", "setting": "Symbol BACT_3058, Number 5816", "value": 1.54}, {"measurement": "Fold change (week 11/week 0) in relative species abundance", "setting": "Symbol BACT_3060, Number 5821", "value": 1.62}, {"measurement": "Fold change (week 11/week 0) in relative species abundance", "setting": "Symbol BACT_3062, Number 5800", "value": 1.49}, {"measurement": "Fold change (week 11/week 0) in relative species abundance", "setting": "Symbol BACT_3085, Number 5842", "value": 1.90}, {"measurement": "Fold change (week 11/week 0) in relative species abundance", "setting": "Symbol BACT_4040, Number 5769", "value": 16.24}, {"measurement": "Fold change (week 11/week 0) in relative species abundance", "setting": "Symbol BACT_4042, Number 5770", "value": 0.28}, {"measurement": "Fold change (week 11/week 0) in relative species abundance", "setting": "Symbol EUKY_222, Number 1954", "value": 1.60}, {"measurement": "Fold change (week 11/week 0) in relative species abundance", "setting": "Symbol V1RL3522, Number 3522", "value": 2.13}]}
